Assay results from patent US12448363B2, “Kinase inhibitors” (Vidya Therapeutics, Inc., priority 2020, dated 2025).

Experiments:
[1] = system: BTK Activity in RAMOS B Cells; assay: Assay to determine BTK activity in RAMOS B cells (anti-IgM, FLIPR Calcium 6); assay type: cell-based; details: EC80 anti-IgM, FLIPR calcium read
Method: On the day before assay, Ramos B cells were plated in plating medium (RPMI1640 medium containing 1% FBS and 1× pencillin-streptomycin). On the day of the assay, 2× dye solution was prepared following the manual of the FLIRP Calcium 6 Assay Kit: Dilute the dye with assay buffer (20 mM HEPES in 1×HBSS, pH7.4); Add probenecid to the final concentration of 5 mM; vortex vigorously for 1-2 minutes. Cells were collected by centrifuging, and the pellet was resuspended in plating medium. After counting, cells were resuspended at a density of 3×10^6/ml in plating medium. Equal volume of 2× dye solution was added to the cell suspension. Cells were then plated at 20 μl/well into a 384-well poly-D-lysine coated plate. Plate was centrifuged at 1000 rpm for 3 minutes and then incubated at 37° C. for 2 hours followed by an additional 15-minute incubation at 25° C. Compounds were prepared at 3× concentration in dilution buffer (20 mM HEPES and 0.1% BSA in 1×HBSS, pH 7.4). Serially diluted compound was transferred from source plate to a 384-well compound plate by using an Echo 550 (Labcyte). 20 μl/well compound dilution buffer was added to the compound plate and mixed on plate shaker for 2 mins. 4×EC80 of Anti-IgM (Jackson ImmunoResearch) was prepared in dilution buffer and 20 μl/well was added to a new 384-well compound plate. After 60 mins of incubation at 25° C. in the dark; cell plate, compound plate containing 4×EC80 of anti-IgM and FLIPR tips were placed into FLIPR (Molecular Devices). 10 ul/well of 4×EC80 anti-IgM was transferred to the cell plate by FLIPR. Plates were read for 160 sec with 1 sec interval.
With respect to Ramos activity, Table 9 lists activity as follows: • “A” denotes an IC50 of less than 10 nM; • “B” denotes an IC50 of from 10 nM to less than 100 nM; and • “C” denotes and IC50 of 100 nM or more.

BTK = BTK (Homo sapiens, UniProt Q06187); assay: Assay to determine activity against BTK (EZ reader, FLPeptide); assay type: biochemical; design: purchased Carna; details: ATP (1 mM), BTK (2 nM), room temperature for 90 minutes
Method: Solutions of compounds (test or control) in DMSO were prepared at the desired concentrations, and serially diluted to 11 concentrations by 3-fold dilution in 384pp-plate using TECAN EVO200. 20 nL of stock were transferred to 384 plate using Echo550. DMSO was used as vehicle control.
Two separate solutions were prepared—an ATP solution containing MgCl2 (10 mM), Brij-35 (0.01%), DTT (2 mM), BSA (0.05%), EGTA (1 mM), HEPE (pH7.5) (50 mM), FLPeptide (6 uM) and ATP (4 mM); and a BTK solution containing MgCl2 (10 mM), Brij-35 (0.01%), DTT (2 mM), BSA (0.05%), EGTA (1 mM), HEPE (pH7.5) (50 mM) and BTK (2.67 nM). […] (Note the final volume of each well was 20 uL containing MgCl2 (10 mM), Brij-35 (0.01%), DTT (2 mM), BSA (0.05%), EGTA (1 mM), HEPE (pH7.5) (50 mM), FLPeptide (1.5 uM), ATP (1 mM) and BTK (2 nM).
The plates were incubated at room temperature for 90 minutes and then stopping buffer added (75 uL, containing 0.5 M EDTA) to terminate the reaction. Samples from each well were analyzed using EZ reader. The % remaining activity was calculated using read conversion ratio (CR) according to the equation: […]
XLFit (equation 201) was used to calculate IC50s by floating both bottom and top.
With respect to BTK activity, Table 4 lists activity as follows: • “A” denotes an IC50 of less than 10 nM, • “B” denotes an IC50 of from 10 nM to less than 100 nM; and • “C” denotes and IC50 of 100 nM or more.

Chain of BTK (Q06187 whole entry): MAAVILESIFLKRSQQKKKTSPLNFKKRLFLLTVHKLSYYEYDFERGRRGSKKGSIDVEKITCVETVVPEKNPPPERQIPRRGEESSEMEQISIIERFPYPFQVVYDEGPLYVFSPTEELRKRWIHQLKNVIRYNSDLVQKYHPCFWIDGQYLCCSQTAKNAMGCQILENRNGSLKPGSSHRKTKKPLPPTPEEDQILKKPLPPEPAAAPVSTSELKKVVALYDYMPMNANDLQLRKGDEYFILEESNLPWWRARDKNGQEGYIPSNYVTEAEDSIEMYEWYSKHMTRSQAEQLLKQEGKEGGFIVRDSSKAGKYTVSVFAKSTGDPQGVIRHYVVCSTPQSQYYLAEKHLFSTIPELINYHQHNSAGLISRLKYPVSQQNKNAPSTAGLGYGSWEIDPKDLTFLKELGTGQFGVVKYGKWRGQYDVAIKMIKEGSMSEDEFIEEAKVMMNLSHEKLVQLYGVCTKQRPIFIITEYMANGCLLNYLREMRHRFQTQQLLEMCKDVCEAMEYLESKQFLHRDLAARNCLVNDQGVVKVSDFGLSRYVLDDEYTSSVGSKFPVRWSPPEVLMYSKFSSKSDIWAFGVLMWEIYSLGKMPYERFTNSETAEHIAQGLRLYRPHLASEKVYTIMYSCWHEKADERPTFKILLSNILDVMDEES

| IC50 ([1]; Homo sapiens, Ramos) [nM] | IC50 (BTK) [nM] | IC50 [1] [nM] | Compound | IC50 ([1]; Homo sapiens) [nM] |
| --- | --- | --- | --- | --- |
| ≥ 100 | ≥ 100 | – | C=CC(=O)N1CCCc2c(cccc2-c2c(F)cc(C(N)=O)c3[nH]c(C)c(Cl)c23)C1 (single isomer, unassigned) [Compound 25c] | – |
| ≥ 100 | ≥ 100 | – | CC#CC(=O)N1CCC=C(c2c(F)cc(C(N)=O)c3[nH]c(C)c(Cl)c23)C1 [Compound 19, 4-(1-(but-2-ynoyl)-1,2,5,6-tetrahydropyridin-3-yl)-3-chloro-5-fluoro-2-methyl-1H-indole-7-carboxamide] | – |
| 10 to 100 | 10 to 100 | – | C=CC(=O)N1CCCC(c2c(F)c(F)c(C(N)=O)c3[nH]c(C)c(C#N)c23)C1 (centres unmarked) [Compound 10, 4-(1-acryloylpiperidin-3-yl)-3-cyano-5,6-difluoro-2-methyl-1H-indole-7-carboxamide] | – |
| 10 to 100 | 10 to 100 | – | C=CC(=O)N[C@H]1CN(c2c(F)cc(C(N)=O)c3[nH]c(C)c(C)c23)CC[C@@H]1F [Compound 30, 4-((3S,4S)-3-acrylamido-4-fluoropiperidin-1-yl)-5-fluoro-2,3-dimethyl-1H-indole-7-carboxamide] | – |
| ≥ 100 | ≥ 100 | – | CC#CC(=O)N1CCC[C@H](c2c(F)cc(C(N)=O)c3[nH]c(C)c(Cl)c23)C1 [Compound 17, (R)-4-(1-(but-2-ynoyl)piperidin-3-yl)-3-chloro-5-fluoro-2-methyl-1H-indole-7-carboxamide] | – |
| – | < 10 | 10 to 100 | C=CC(=O)N1CCc2c(cccc2-c2c(F)c(F)c(C(N)=O)c3[nH]c(C)c(Cl)c23)C1 [Compound 21a, 4-(2-acryloyl-1,2,3,4-tetrahydroisoquinolin-5-yl)-3-chloro-5,6-difluoro-2-methyl-1H-indole-7-carboxamide] | – |
| – | ≥ 100 | ≥ 100 | C=CC(=O)N1CCc2c(-c3c(F)cc(C(N)=O)c4[nH]c(C)c(Cl)c34)cccc2[C@@H]1C (single isomer, unassigned) [Compound 22d] | – |
| – | < 10 | < 10 | C=CC(=O)N1CCc2c(-c3c(F)cc(C(N)=O)c4[nH]c(C)c(Cl)c34)cccc2[C@H]1C (single isomer, unassigned) [Compound 22e] | – |
| 10 to 100 | < 10 | – | C#CC(=O)N1CCc2c(cccc2-c2c(F)cc(C(N)=O)c3[nH]c(C)c(C)c23)C1 [Compound 20j, 5-fluoro-2,3-dimethyl-4-(2-propioloyl-1,2,3,4-tetrahydroisoquinolin-5-yl)-1H-indole-7-carboxamide] | – |
| 10 to 100 | 10 to 100 | – | C=CC(=O)N[C@H]1CN(c2c(F)cc(C(N)=O)c3[nH]c(C)c(C)c23)CC[C@H]1F [Compound 31, 4-((3S,4R)-3-acrylamido-4-fluoropiperidin-1-yl)-5-fluoro-2,3-dimethyl-1H-indole-7-carboxamide] | – |
| – | < 10 | < 10 | C=CC(=O)N1CCc2c(cccc2-c2c(F)c(F)c(C(N)=O)c3[nH]c(C)c(Cl)c23)C1 (atropisomer, axis not shown) [Compound 21b, (R)-4-(2-acryloyl-1,2,3,4-tetrahydroisoquinolin-5-yl)-3-chloro-5,6-difluoro-2-methyl-1H-indole-7-carboxamide] | – |
| – | ≥ 100 | ≥ 100 | C=CC(=O)N1CCc2c(-c3c(F)cc(C(N)=O)c4[nH]c(C)c(Cl)c34)cccc2[C@H]1C (single isomer, unassigned) [Compound 22b] | – |
| – | ≥ 100 | ≥ 100 | C=CC(=O)N1CCc2c(cccc2-c2c(F)cc(C(N)=O)c3[nH]c(C)c(C#N)c23)C1 (atropisomer, axis not shown) [Compound 20h, (S)-4-(2-acryloyl-1,2,3,4-tetrahydroisoquinolin-5-yl)-3-cyano-5-fluoro-2-methyl-1H-indole-7-carboxamide] | – |
| 10 to 100 | 10 to 100 | – | C=CC(=O)N1CCc2c(cccc2-c2c(F)c(F)c(C(N)=O)c3[nH]c(C)c(C#N)c23)C1 [Compound 21e, 4-(2-acryloyl-1,2,3,4-tetrahydroisoquinolin-5-yl)-3-cyano-5,6-difluoro-2-methyl-1H-indole-7-carboxamide] | – |
| – | < 10 | 10 to 100 | C=CC(=O)N1CCc2c(cccc2-c2c(F)cc(C(N)=O)c3[nH]c(C)c(C#N)c23)C1 (atropisomer, axis not shown) [Compound 20i, (R)-4-(2-acryloyl-1,2,3,4-tetrahydroisoquinolin-5-yl)-3-cyano-5-fluoro-2-methyl-1H-indole-7-carboxamide] | – |
| – | < 10 | 10 to 100 | C=CC(=O)N1CCc2c(cccc2-c2c(F)cc(C(N)=O)c3[nH]c(C)c(C#N)c23)C1 [Compound 20g, 4-(2-acryloyl-1,2,3,4-tetrahydroisoquinolin-5-yl)-3-cyano-5-fluoro-2-methyl-1H-indole-7-carboxamide] | – |
| ≥ 100 | ≥ 100 | – | C=CC(=O)N1CCC[C@@H](c2c(F)cc(C(N)=O)c3[nH]c(C)c(C(F)F)c23)C1 [Compound 12, (S)-4-(1-acryloylpiperidin-3-yl)-3-(difluoromethyl)-5-fluoro-2-methyl-1H-indole-7-carboxamide] | – |
| 10 to 100 | 10 to 100 | – | C=CC(=O)N1CCc2c(-c3c(F)cc(C(N)=O)c4[nH]c(C)cc34)cccc2C1C1CC1 (centres unmarked) [Compound 23, 4-(2-acryloyl-1-cyclopropyl-1,2,3,4-tetrahydroisoquinolin-5-yl)-5-fluoro-2-methyl-1H-indole-7-carboxamide] | – |
| – | < 10 | 10 to 100 | C=CC(=O)N1CCC2CCN(c3c(F)cc(C(N)=O)c4[nH]c(C)c(Cl)c34)CC21 (single isomer, unassigned) [Compound 29b, 4-(1-acryloyloctahydro-6H-pyrrolo[2,3-c]pyridin-6-yl)-3-chloro-5-fluoro-2-methyl-1H-indole-7-carboxamide] | – |
| < 10 | < 10 | – | C#CC(=O)N1CCC[C@H](c2c(F)cc(C(N)=O)c3[nH]c(C)c(Cl)c23)C1 [Compound 7, (R)-3-chloro-5-fluoro-2-methyl-4-(1-propioloylpiperidin-3-yl)-1H-indole-7-carboxamide] | – |
| ≥ 100 | ≥ 100 | – | C=CC(=O)N1CCc2c(-c3c(F)cc(C(N)=O)c4[nH]c(C)c(Cl)c34)cccc2[C@@H]1C (single isomer, unassigned) [Compound 22c] | – |
| < 10 | < 10 | – | C=CC(=O)N1CCCC(c2c(F)c(F)c(C(N)=O)c3[nH]c(C)c(F)c23)C1 (centres unmarked) [Compound 13, 4-(1-acryloylpiperidin-3-yl)-3,5,6-trifluoro-2-methyl-1H-indole-7-carboxamide] | – |
| 10 to 100 | 10 to 100 | – | C=CC(=O)N1CCc2c(cccc2-c2c(F)c(F)c(C(N)=O)c3[nH]c(C)c(F)c23)C1 [Compound 21d, 4-(2-acryloyl-1,2,3,4-tetrahydroisoquinolin-5-yl)-3,5,6-trifluoro-2-methyl-1H-indole-7-carboxamide] | – |
| < 10 | < 10 | – | C#CC(=O)N1CCC[C@@H](c2c(F)cc(C(N)=O)c3[nH]c(C)c(Cl)c23)C1 [Compound 8, (S)-3-chloro-5-fluoro-2-methyl-4-(1-propioloylpiperidin-3-yl)-1H-indole-7-carboxamide] | – |

| Compound | IC50 ([1]; Homo sapiens, Ramos) [nM] | IC50 (BTK) [nM] | IC50 [1] [nM] | IC50 ([1]; Homo sapiens) [nM] |
| --- | --- | --- | --- | --- |
| C=CC(=O)N1CCCc2c(cccc2-c2c(F)cc(C(N)=O)c3[nH]c(C)cc23)C1 [Compound 25b, 4-(2-acryloyl-2,3,4,5-tetrahydro-1H-benzo[c]azepin-6-yl)-5-fluoro-2-methyl-1H-indole-7-carboxamide] | – | 10 to 100 | – | ≥ 100 |
